Source: patent publication US11028090B2 (Dong Wha Pharm. Co., Ltd., priority 2017, dated 2021)
pIC50: −log10 of the molar value. Where two headings read alike, the source gives them in different places.

Experiments:
[1] = system: acute myelogenous leukemia cells (MV-4-11 cells); test: Cytotoxicity to acute myelogenous leukemia cells (MV-4-11 cells), CCK-8; conditions: Homo sapiens, MV4-11, 72 h
[2] = biological target: BRD4 (BD1+BD2) bromodomain (Homo sapiens (Human), UniProt O60885); test: BRD4 binding inhibition (AlphaScreen, GST-BRD4 vs tetraacetylated histone H4 peptide)
In short: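 AlphaScreen read after 30 min dark incubation at room temperature with glutathione acceptor/streptavidin donor beads (10 μg/ml each). The beads were added to compound plus 100 nM biotin-H4 (K5,8,12,16-acetyl) peptide and 100 nM GST-BRD4 BD1+BD2 in pH 7.4 HEPES/Tween/BSA/DTT buffer.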

[3] = read-out: MV-4-11 Cytotoxicity IC50
[4] = GST-BRD4 (BD1+BD2) / biotinylated acetyl-histone H4 (Lys5,8,12,16) peptide, read-out: IC50, BRD4 binding inhibition
[5] = GST-BRD4 (BD1+BD2) vs biotinylated acetyl-histone H4 peptide, AlphaScreen, read-out: BRD4 IC50
[6] = read-out: IC50, cytotoxicity against acute myelogenous leukemia cells

| pIC50 [2, 4] | pIC50 [2, 5] | SMILES | pIC50 [1, 3] | pIC50 [1, 6] | pIC50 ([2]; IC50, BRD4 binding inhibition, GST-BRD4 (BD1+BD2) / biotinylated acetyl-histone H4 (Lys5,8,12,16) peptide) |
| --- | --- | --- | --- | --- | --- |
| ≥ 7.30 | – | CCCOC(=O)N[C@H](C(=O)NCCCCNc1nc2cc(N3C[C@@H](C)O[C@@H](C)C3)ccc2n2c(C)nnc12)C(C)C [Example 516, (S)-(1-{4-[7-(2,6-dimethyl-morpholine-4-yl)-1-methyl-[1,2,4]triazolo[4,3-a]quinoxaline-4-ylamino]-butylcarbamoyl}-2-methyl-propyl)-carbamic acid propylester] | 6.29 | – | – |
| ≥ 8.00 | 8.10 | Cc1nnc2c(NCCCCNC(=O)[C@@H](O)C(C)C)nc3cc(OCCN4CCOCC4)ccc3n12 [Example 435, 2-(S)-hydroxy-N-{4-[7-(2-morpholine-4-yl-ethoxy)-1-methyl-[1,2,4]triazolo[4,3-a]quinoxaline-4-ylamino]-butyl}-3-methyl-butyramide] | 6.96 | – | – |
| ≥ 8.00 | 8.10 | COc1ccc2c(c1)nc(NCCCCNC(=O)[C@@H](Br)C(C)C)c1nnc(C)n12 [Example 302, 2-(S)-bromo-N-[4-(7-methoxy-1-methyl-[1,2,4]triazolo[4,3-a]quinoxaline-4-ylamino)-butyl]-3-methyl-butyramide] | 7.18 | ≥ 6.70 | – |
| – | 7.25 | COc1cc2nc(NCCCCNC(=O)OC(C)C)c3nnc(C(C)C)n3c2cc1OC [Example 601, [4-(1-isopropyl-7,8-dimethoxy-[1,2,4]triazolo[4,3-a]quinoxaline-4-ylamino)-butyl]-carbamic acid isopropylester] | 6.64 | – | – |
| ≥ 7.30 | 7.74 | COc1cc(C)c2nc(NCCCCNC(=O)OC(C)(C)C)c3nnc(C)n3c2c1 [Example 158, [4-(8-methoxy-1,6-dimethyl-[1,2,4]triazolo[4,3-a]quinoxaline-4-ylamino)-butyl]-carbamic acid-tert-butylester] | 6.21 | – | – |
| ≥ 7.30 | 7.66 | COc1ccc2c(c1)nc(NCCCCNC(=O)Cc1cccs1)c1nnc(C)n12 [Example 307, N-[4-(7-methoxy-1-methyl-[1,2,4]triazolo[4,3-a]quinoxaline-4-ylamino)-butyl]-2-thiophene-2-yl-acetamide] | 8.00 | ≥ 6.70 | – |
| ≥ 8.00 | 8.30 | COc1cc2nc(NCCCCNC(=O)[C@@H](O)C(C)C)c3nnc(C)n3c2cc1C(F)(F)F [Example 479, 2-(S)-hydroxy-N-[4-(7-methoxy-1-methyl-8-trifluoromethyl-[1,2,4]triazolo[4,3-a]quinoxaline-4-ylamino)-butyl]-3-methyl-butyramide] | 6.62 | – | – |
| ≥ 7.30 | 7.37 | Cc1nnc2c(NCCCCNC(=O)CC(C)(C)C)nc3ccc(OC(F)(F)F)cc3n12 [Example 266, 3,3-dimethyl-N-[4-(1-methyl-8-trifluoromethoxy-[1,2,4]triazolo[4,3-a]quinoxaline-4-ylamino)-butyl]-butyramide] | 6.27 | – | – |
| ≥ 7.30 | 7.89 | Cc1nnc2c(NCCCCNC(=O)CC(C)C)nc3cc(-c4nc5ccccc5[nH]4)ccc3n12 [Example 224, N-{4-[7-(1H-benzoimidazole-2-yl)-1-methyl-[1,2,4]triazolo[4,3-a]quinoxaline-4-ylamino]-butyl}-3-methyl-butyramide] | 8.52 | ≥ 6.70 | – |
| ≥ 7.30 | 7.55 | CCC(C)CC(=O)NCCCCNc1nc2cc(OC)ccc2n2c(C(F)(F)F)nnc12 (centres unmarked) [Example 591, 3-methyl-pentanoic acid-[4-(7-methoxy-1-trifluoromethyl-[1,2,4]triazolo[4,3-a]quinoxaline-4-ylamino)-butyl]-amide] | 6.06 | – | – |
| ≥ 7.30 | 7.89 | Cc1nnc2c(NCCCCNC(=O)CC(C)C)nc3cc(-n4ccnc4)ccc3n12 [Example 492, N-[4-(7-imidazole-1-yl-1-methyl-[1,2,4]triazolo[4,3-a]quinoxaline-4-ylamino)-butyl]-3-methyl-butyramide] | 7.10 | ≥ 6.70 | – |
| ≥ 7.30 | 7.44 | COc1cc2nc(NCCCCNC(=O)c3ccccc3)c3nnc(C)n3c2cc1OC [Example 95, N-[4-(7,8-dimethoxy-1-methyl-[1,2,4]triazolo[4,3-a]quinoxaline-4-ylamino)-butyl]-benzamide] | 6.23 | – | – |
| ≥ 8.00 | 8.15 | CSc1ccc2c(c1)nc(NCCCCNC(=O)[C@@H](O)C(C)C)c1nnc(C)n12 [Example 358, 2-(S)-hydroxy-3-methyl-N-[4-(1-methyl-7-methylsulfanyl-[1,2,4]triazolo[4,3-a]quinoxaline-4-ylamino)-butyl]-butyramide] | 6.80 | – | – |
| – | 7.25 | Cc1nnc2c(NCCCCNC(=O)CC(C)C)nc3cc(OCCCC#N)ccc3n12 [Example 342, N-{4-[7-(3-cyano-propoxy)-1-methyl-[1,2,4]triazolo[4,3-a]quinoxaline-4-ylamino]-butyl}-3-methyl-butyramide] | 7.55 | ≥ 6.70 | – |
| ≥ 8.00 | 8.40 | CCOc1cc2nc(NCCCCNC(=O)OC(C)(C)C)c3nnc(C)n3c2cc1OCC [Example 173] | 6.44 | – | – |
| ≥ 7.30 | 7.74 | Cc1nnc2c(NCCCCNC(=O)OC(C)C)nc3cc(OCCN4CCOCC4)ccc3n12 [Example 436, {4-[1-methyl-7-(2-morpholine-4-yl-ethoxy)-[1,2,4]triazolo[4,3-a]quinoxaline-4-ylamino]-butyl}-carbamic acid isopropylester] | 6.80 | ≥ 6.70 | – |
| ≥ 7.30 | 7.92 | COc1ccc2c(c1)nc(NCCCCNC(=O)[C@@H](NC(=O)[C@@H](F)C(C)C)C(C)C)c1nnc(C)n12 [Example 321, (S)-2-(S)-fluoro-N-{1-[4-(7-methoxy-1-methyl-[1,2,4]triazolo[4,3-a]quinoxaline-4-ylamino)-butylcarbamoyl]-2-methyl-propyl}-3-methyl-butyramide] | 6.26 | – | – |
| ≥ 7.30 | 7.70 | CCC(CC)C(=O)NCCCCNc1nc2cc(OC)c(OC)cc2n2c(C)nnc12 [Example 78, N-[4-(7,8-dimethoxy-1-methyl-[1,2,4]triazolo[4,3-a]quinoxaline-4-ylamino)-butyl]-2-ethyl-butyramide] | 6.85 | ≥ 6.70 | – |
| ≥ 8.00 | 8.70 | CCOc1cc2nc(NCCCCNC(=O)OCC(C)C)c3nnc(C)n3c2cc1OCC [Example 176, [4-(7,8-diethoxy-1-methyl-[1,2,4]triazolo[4,3-a]quinoxaline-4-ylamino)-butyl]-carbamic acid isobutylester] | 6.96 | ≥ 6.70 | – |
| ≥ 7.30 | 7.48 | COc1ccc2nc(NCCCCNC(=O)c3ccccc3Cl)c3nnc(C)n3c2c1 [Example 128, 2-chloro-N-[4-(8-methoxy-1-methyl-[1,2,4]triazolo[4,3-a]quinoxaline-4-ylamino)-butyl]-benzamide] | 6.77 | ≥ 6.70 | – |
| ≥ 7.30 | 7.85 | COc1ccc2c(c1)nc(NCCCCNC(=O)[C@@H](NC(=O)CC(C)C)C(C)C)c1nnc(C)n12 [Example 322, (S)-N-[4-(7-methoxy-1-methyl-[1,2,4]triazolo[4,3-a]quinoxaline-4-ylamino)-butyl]-3-methyl-2-(3-methyl-butyrylamino)-butyramide] | 6.80 | ≥ 6.70 | – |
| ≥ 8.00 | 9.05 | CCCn1c(-c2ccc3c(c2)nc(NCCCCNC(=O)CC(C)C)c2nnc(C)n23)nc2ccccc21 [Example 240, 3-methyl-N-{4-[1-methyl-7-(1-propyl-1H-benzoimidazole-2-yl)-[1,2,4]triazolo[4,3-a]quinoxaline-4-ylamino]-butyl}-butyramide] | 6.80 | ≥ 6.70 | – |
| ≥ 8.00 | 8.00 | COCCOc1ccc2c(c1)nc(NCCCCNC(=O)[C@H](NC(=O)[C@@H](O)C(C)C)C(C)C)c1nnc(C)n12 (stereo in doubt) [Example 403, 2-(S,R)-hydroxy-N-(1-{4-[7-(2-methoxy-ethoxy)-1-methyl-[1,2,4]triazolo[4,3-a]quinoxaline-4-ylamino]-butylcarbamoyl}-2-methyl-propyl)-3-methyl-butyramide] | 6.21 | – | – |
| ≥ 7.30 | 7.52 | COc1ccc2c(c1)nc(NCCCCNC(=O)[C@@H](F)C(C)C)c1nnc(C)n12 [Example 286, 2-(S)-fluoro-N-[4-(7-methoxy-1-methyl-[1,2,4]triazolo[4,3-a]quinoxaline-4-ylamino)-butyl]-3-methyl-butyramide] | 7.59 | ≥ 6.70 | – |
| ≥ 7.30 | 7.72 | COCCOc1ccc2c(c1)nc(NCCCCNC(=O)c1ccccc1Cl)c1nnc(C)n12 [Example 411, 2-chloro-N-{4-[7-(2-methoxy-ethoxy)-1-methyl-[1,2,4]triazolo[4,3-a]quinoxaline-4-ylamino]-butyl}-benzamide] | 6.82 | ≥ 6.70 | – |

| SMILES | pIC50 [2, 4] | pIC50 [2, 5] | pIC50 [1, 3] | pIC50 [1, 6] | pIC50 ([2]; IC50, BRD4 binding inhibition, GST-BRD4 (BD1+BD2) / biotinylated acetyl-histone H4 (Lys5,8,12,16) peptide) |
| --- | --- | --- | --- | --- | --- |
| COc1ccc2c(c1)nc(NCCCCNC(=O)C(F)(F)C(F)(F)C(F)(F)F)c1nnc(C)n12 [Example 292, 2,2,3,3,4,4,4-heptafluoro-N-[4-(7-methoxy-1-methyl-[1,2,4]triazolo[4,3-a]quinoxaline-4-ylamino)-butyl]-butyramide] | – | 7.62 | 6.80 | ≥ 6.70 | ≥ 7.30 |
